Like-named read-outs stand apart in the source and are kept apart here.

For assay [1], the target named is T1, human recombinant adrenergic α2B receptor (Homo sapiens, UniProt P18089).
T1 construct: expressed in transfected cells; host or cells: CHO-K1
T1 sequence (P18089 1-450): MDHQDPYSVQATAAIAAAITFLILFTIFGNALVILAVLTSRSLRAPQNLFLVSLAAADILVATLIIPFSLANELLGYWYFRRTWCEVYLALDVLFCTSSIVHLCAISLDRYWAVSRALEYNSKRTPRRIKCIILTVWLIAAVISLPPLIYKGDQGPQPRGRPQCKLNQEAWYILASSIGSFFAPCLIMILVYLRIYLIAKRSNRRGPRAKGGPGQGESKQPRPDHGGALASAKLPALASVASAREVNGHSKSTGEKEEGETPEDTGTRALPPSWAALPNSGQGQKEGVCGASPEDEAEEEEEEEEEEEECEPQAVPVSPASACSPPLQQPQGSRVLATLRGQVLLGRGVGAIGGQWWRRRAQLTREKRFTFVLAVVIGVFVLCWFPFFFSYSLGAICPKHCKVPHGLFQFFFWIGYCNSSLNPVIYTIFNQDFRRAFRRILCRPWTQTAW
Description: Radioligand binding, adrenergic α2B ([3H]Rauwolscine). Put shortly:
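Readout: percent inhibition of specific [3H]Rauwolscine binding, measured by filtration and counting. Conditions: CHO-K1 cell-expressed receptor, 2.5 nM radioligand, 60 min, 25° C, Tris-HCl pH 7.4 buffer with MgCl2, EDTA, BSA. Non-specific binding: 10 μM Prazosin.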

For assay [2], the target named is T2, human recombinant adrenergic α1D receptor (Homo sapiens, UniProt P25100).
T2 construct: expressed in transfected cells; host or cells: HEK-293
T2 sequence (P25100 1-572): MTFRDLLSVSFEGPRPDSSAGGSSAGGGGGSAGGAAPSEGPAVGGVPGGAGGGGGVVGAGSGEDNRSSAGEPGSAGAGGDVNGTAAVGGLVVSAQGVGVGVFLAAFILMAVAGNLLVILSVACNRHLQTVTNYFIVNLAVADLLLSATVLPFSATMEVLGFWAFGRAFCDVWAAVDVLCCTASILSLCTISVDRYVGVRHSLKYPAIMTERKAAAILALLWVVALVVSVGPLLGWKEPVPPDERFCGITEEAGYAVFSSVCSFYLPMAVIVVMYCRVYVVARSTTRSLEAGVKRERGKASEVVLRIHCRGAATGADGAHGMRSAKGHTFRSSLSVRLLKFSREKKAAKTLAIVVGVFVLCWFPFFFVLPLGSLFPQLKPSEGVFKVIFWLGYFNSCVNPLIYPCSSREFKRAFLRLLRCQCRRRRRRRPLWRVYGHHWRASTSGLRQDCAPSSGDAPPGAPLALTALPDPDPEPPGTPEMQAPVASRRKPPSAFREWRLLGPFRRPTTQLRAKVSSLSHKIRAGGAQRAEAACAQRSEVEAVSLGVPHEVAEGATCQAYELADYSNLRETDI
The experiment in a line: Radioligand binding, adrenergic α1D ([3H]Prazosin). On the procedure:
Compounds were incubated with 0.6 nM [3H]Prazosin for 60 min at 25° C. Non-specific binding was estimated in the presence of 10 μM phentolamine. Receptor proteins were filtered and washed, the filters were then counted to determine [3H]Prazosin specifically bound. […] Biochemical assay results are presented as the percent inhibition of specific binding in Table B1.

The target in assay [3] is T3, rat adrenergic α1B receptor (Rattus norvegicus, UniProt P15823).
T3 construct: rat adrenergic α1B receptor obtained from Wistar Rat liver; from tissue; host or cells: Wistar rat liver
T3 sequence (P15823 1-515): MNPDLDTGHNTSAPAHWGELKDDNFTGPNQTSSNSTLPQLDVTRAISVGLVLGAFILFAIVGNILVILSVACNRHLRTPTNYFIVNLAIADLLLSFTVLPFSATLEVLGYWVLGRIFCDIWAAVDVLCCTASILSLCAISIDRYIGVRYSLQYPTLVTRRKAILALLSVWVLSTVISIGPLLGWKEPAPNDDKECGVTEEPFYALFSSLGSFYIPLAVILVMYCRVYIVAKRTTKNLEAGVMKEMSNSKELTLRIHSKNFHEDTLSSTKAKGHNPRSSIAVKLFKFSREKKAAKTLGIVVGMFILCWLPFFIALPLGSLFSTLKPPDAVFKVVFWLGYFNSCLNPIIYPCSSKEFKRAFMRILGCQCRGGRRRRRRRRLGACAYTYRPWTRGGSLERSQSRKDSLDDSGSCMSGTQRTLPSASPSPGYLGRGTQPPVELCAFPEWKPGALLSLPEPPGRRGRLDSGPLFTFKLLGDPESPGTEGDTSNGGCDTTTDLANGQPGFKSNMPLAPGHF
The experiment in a line: Radioligand binding, adrenergic α1B ([3H]Prazosin). The essentials: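 Specific binding, taken as total minus that remaining with 10 μM phentolamine, is measured after filtration and counting. Rat liver receptor preparation and 0.25 nM [3H]prazosin are incubated with compound in 50 mM Tris-HCl (pH 7.4, 0.5 mM EDTA) at 25° C for 60 min. Activity is reported as percent inhibition.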

Assay [4] deals with T4, human recombinant adrenergic α2A receptor (Homo sapiens, UniProt P08913).
T4 construct: expressed in transfected cells; host or cells: insect Sf9 cells
T4 sequence (P08913 1-465): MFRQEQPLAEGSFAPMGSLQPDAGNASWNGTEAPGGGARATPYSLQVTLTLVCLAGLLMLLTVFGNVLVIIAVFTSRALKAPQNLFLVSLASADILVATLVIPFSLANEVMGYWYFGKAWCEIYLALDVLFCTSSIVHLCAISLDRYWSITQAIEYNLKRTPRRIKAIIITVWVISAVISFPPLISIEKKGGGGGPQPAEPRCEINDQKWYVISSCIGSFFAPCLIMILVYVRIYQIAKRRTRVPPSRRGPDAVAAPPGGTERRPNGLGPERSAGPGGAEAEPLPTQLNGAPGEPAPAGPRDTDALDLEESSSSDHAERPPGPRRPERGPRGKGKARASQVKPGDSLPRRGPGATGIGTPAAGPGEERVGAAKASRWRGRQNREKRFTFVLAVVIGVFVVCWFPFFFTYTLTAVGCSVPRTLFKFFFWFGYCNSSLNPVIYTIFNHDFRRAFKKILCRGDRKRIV
The experiment in a line: Radioligand binding, adrenergic α2A ([3H]MK-912). Put shortly:
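Displacement of 1 nM [3H]MK-912 from receptor produced in insect Sf9 cells was measured after 60 min at 25 °C. Readout: percent inhibition of specific binding.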

Where [5] appears, read: 0.1 μM compound, read-out: Percentage inhibition of ligand binding, Adrenergic α2B.
The mark [6] stands for this setting: 0.1 μM compound, read-out: Percentage inhibition of ligand binding, Adrenergic α1D.
The mark [7] stands for this setting: 0.1 μM compound, read-out: Percentage inhibition of ligand binding, Adrenergic α1B.
Setting [8] is: 0.1 μM compound, read-out: Percentage inhibition of ligand binding, Adrenergic α2A.
The mark [9] stands for this setting: read-out: Percentage inhibition of ligand binding, Adrenergic α2B (0.1 μM), compound at 0.1 μM, [3H]Rauwolscine, repeat datapoints each shown.
Setting [10] is: read-out: Percentage inhibition of ligand binding, Adrenergic α1D (0.1 μM), compound at 0.1 μM, [3H]Prazosin, repeat datapoints each shown.
Where [11] appears, read: read-out: Percentage inhibition of ligand binding, Adrenergic α1B (0.1 μM), compound at 0.1 μM, [3H]Prazosin, repeat datapoints each shown.
Setting [12] is: read-out: Percentage inhibition of ligand binding, Adrenergic α2A (0.1 μM), compound at 0.1 μM, [3H]MK-912, repeat datapoints each shown.

What is called inhibition is the drop in the measured response relative to a control, in per cent. Consider `Cc1ccc2c(c1)c1c(n2CCc2cccc(N(C)C)c2)CCN(C)C1` [compound 298, {3-[2-(2,8-dimethyl-1,2,3,4-tetrahydro-pyrido[4,3-b]indol-5-yl)-ethyl]-phenyl}-dimethyl-amine], for which the inhibition at 0.1 µM worked out at 51% in assay [1] (setting [5]), 17% in assay [2] (setting [6]), 60% in assay [3] (setting [7]) and 54% in assay [4] (setting [8]).
Taken in the same sequence, the figures for `C/C(=C/n1c2c(c3cc(C)ccc31)CN(C)CC2)c1cnc(N(C)C)nc1` [compound 279] were 92%, 93%, 79% and 90%.
Taken in the same sequence, the figures for `C/C(=C/n1c2c(c3cc(C)ccc31)CN(C)CC2)c1cnn(C)c1` [compound 275] were 94%, 61%, 75% and 51%.
Taken in the same sequence, the figures for `Cc1ccc2c(c1)c1c(n2C2=C(c3cccc4ccccc34)CCC2)CCN(C)C1` [compound 306, 2,8-dimethyl-5-(2-(naphthalen-1-yl)cyclopent-1-enyl)-2,3,4,5-tetrahydro-1H-pyrido[4,3-b]indole] were 14%, 12%, 18% and 78%.
`Cc1ccc(CCn2c3c(c4cc(C)ccc42)CN(C)CC3)nc1` [compound 299, 2,8-dimethyl-5-[2-(5-methyl-pyridin-2-yl)-ethyl]-2,3,4,5-tetrahydro-1H-pyrido[4,3-b]indole]: the inhibition at 0.1 µM in assay [1] (setting [5]) was found to be 54%; in assay [2] (setting [6]), 47%; in assay [3] (setting [7]), 78%; in assay [4] (setting [8]), 52%.
As for `C/C(=C/n1c2c(c3cc(C)ccc31)CN(C)CC2)c1cccc(F)c1` [compound 236], the inhibition at 0.1 µM in assay [1] (setting [9]) is 98%; in assay [2] (setting [10]), 85%; in assay [3] (setting [11]), 94%; in assay [4] (setting [12]), 99%.
`C/C(=C/n1c2c(c3cc(C)ccc31)CCN(C)CC2)c1ccccc1F` [compound 230]: the inhibition at 0.1 µM in assay [1] (setting [9]) amounted to 93%; in assay [2] (setting [10]), 58%; in assay [3] (setting [11]), 94%; in assay [4] (setting [12]), 87%.
On the same counts, the results for `C/C(=C\n1c2c(c3cc(C)ccc31)CN(C)CC2)c1ccc(CO)nc1` [compound 125, (E)-(5-(1-(2,8-dimethyl-3,4-dihydro-1H-pyrido[4,3-b]indol-5(2H)-yl)prop-1-en-2-yl)pyridin-2-yl)methanol] are 68%, 1%, -3% and -4%.
As for `Cc1ccc2c(c1)c1c(n2C2=C(c3ccc(F)cc3)CCC2)CCN(C)C1` [compound 301, 5-(2-(4-fluorophenyl)cyclopent-1-enyl)-2,8-dimethyl-2,3,4,5-tetrahydro-1H-pyrido[4,3-b]indole], the inhibition at 0.1 µM in assay [1] (setting [5]) worked out at 84%; in assay [2] (setting [6]), 36%; in assay [3] (setting [7]), 29%; in assay [4] (setting [8]) it was 87%.
On the same counts, the results for `Cc1ccc2c(c1)c1c(n2CC(O)(c2ccccc2)c2ccccc2)CCN(C)C1` [compound 263] are 54%, 6%, 1% and 61%.
`C/C(=C\n1c2c(c3cc(C)ccc31)CN(C)CC2)c1cccc2ccccc12` [compound 113]: the inhibition at 0.1 µM in assay [1] (setting [9]) was found to be 87%; in assay [2] (setting [10]) it was 3%; in assay [3] (setting [11]) it was 12%; in assay [4] (setting [12]) it was 29%.
`Cc1ccc2c(c1)c1c(n2C#Cc2ccc(S(N)(=O)=O)s2)CCN(C)C1` [compound 334, 5-(2,8-dimethyl-1,2,3,4-tetrahydro-pyrido[4,3-b]indol-5-ylethynyl)-thiophene-2-sulfonic acid amide]: the inhibition at 0.1 µM worked out at 82% in assay [1] (setting [5]), 72% in assay [2] (setting [6]), 91% in assay [3] (setting [7]) and 55% in assay [4] (setting [8]).
On the same counts, the results for `C/C(=C\n1c2c(c3cc(C)cnc31)CN(C)CC2)c1ccc(F)cc1` [compound 335, 9-[2-(4-fluoro-phenyl)-propenyl]-3,6-dimethyl-6,7,8,9-tetrahydro-5H-1,6,9-triaza-fluorene] are 99%, 73%, 82% and 60%.
Taken in the same sequence, the figures for `C/C(=C\n1c2c(c3cc(C)cc(C)c31)CN(C)CC2)c1cccc(S(C)(=O)=O)c1` [compound 310] were 87%, 47%, 63% and 69%.
One may read the Ki as the equilibrium dissociation constant of an inhibitor or competing ligand from its target. For `Cc1ccc(CCn2c3c(c4c(Cl)ccc(Cl)c42)CN(C)CC3)cn1` [compound 325], the inhibition at 0.1 µM is -6% in assay [1] (setting [5]), 1% in assay [2] (setting [6]), -1% in assay [3] (setting [7]) and 81% in assay [4] (setting [8]). The Ki was 206 nM in assay [1] (read-out: Ki α2B) and 9.88 nM in assay [4]. For the same compound, the inhibition at 0.03 µM in assay [4] (0.03 μM compound, read-out: Percentage inhibition of ligand binding, Adrenergic α2A) came to 53%. In assay [4] (0.1 μM compound, 0.1 µM), the “Percentage inhibition of ligand binding, Adrenergic α2A” value is given as 84%.

Source of the values: patent publication US8791132B2, “Compounds and methods for treatment of hypertension” (Medivation Technologies, Inc., priority 2011, dated 2014).
